The values that follow come from patent US10450288B2, “Hydroxy formamide derivatives and their use” (GLAXOSMITHKLINE INTELLECTUAL PROPERTY (NO.2) LIMITED, priority 2014, dated 2019).

A value given as a limit tells only on which side of the number the result lay.

Assay [1] relates to human cardiac fibroblasts. The experiment in a line: Cell-based inhibition assay of generation of procollagen I C-terminal propeptide (PICP), PICP ELISA. The following applies: Cardiac fibroblast; human cardiac fibroblasts, crowding media, 24 to 48 hr, PICP ELISA of media; read-out: pIC50, PICP cellular inhibition assay (converted). In outline:
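Cardiac fibroblasts (passage ≤6) treated 24–48 h at 37 °C with compounds in ficoll crowding medium containing 100 μM ascorbic acid, DMSO <0.3%. PICP secreted into the medium was quantified by ELISA, normalised to untreated controls and fitted to log(inhibitor)–response to give pIC50.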
Background: ELISA stands for enzyme-linked immunosorbent assay.

Assay [2] relates to human cardiac fibroblasts. Briefly: Cell-based inhibition assay of mature collagen deposition (immunostaining). The note with it: Cardiac fibroblast; human cardiac fibroblasts, crowding media, 24 to 48 hr, collagen I immunostaining normalized to nuclei; read-out: pIC50, mature collagen cellular inhibition assay (converted). Here is the method:
Cell-Based Inhibition Assay of Generation of Procollagen I C-Terminal Propeptide (PICP) and Mature Collagen:
An adaptation of the collagen deposition assay described by Chen, C. Z. C., et al., British Journal of Pharmacology, 2009, 158, 1196-1209 was used to examine effect of compounds on procollagen I processing and collagen deposition. In the adapted assay, human cardiac fibroblasts were utilized. Processing of procollagen I was determined by a PICP ELISA assay and deposition of mature collagen was determined by immunostaining.
Human cardiac fibroblasts were cultured and maintained until passage 6 in FGM-3 media (Lonza, #CC-3132) in a 37° C. humidified incubator with 5% CO2. They were then seeded in 96-well black wall, clear bottom plates at 10,000 to 15,000 cells per well in eagle's minimum essential media (EMEM, ATCC #30-2003) containing 10% fetal bovine serum (FBS, Life Technologies #10082147), 1% Glutamax (Life Technologies #35050061) and 1% Penicillin and Streptomycin (Life Technologies #15070063). These cultures were placed in 37° C. incubator. The next day, media were removed by aspiration and cells were rinsed with phosphate buffered saline. Crowding media (also called ficoll media) was prepared by adding 112.5 mg/ml of ficoll70 and 75 mg/ml ficoll400 (GE healthcare #17-0310-10 and 17-0300-10, respectively), 100 μM ascorbic acid, 1% Glutamax and 1% Penicillin and Streptomycin to EMEM media. Test compounds (dissolved in DMSO) were diluted into crowding media and then added to the cells. Final concentration of DMSO in crowding media was less than 0.3%. Cells were treated for 24 to 48 hr in a 37° C. incubator. At the end of the treatment period, cell media were collected. The level of PICP in the media were determined by a PICP ELISA assay (Quidel #8003) following the manufacturer's protocol. Potencies of test compounds were calculated by fitting PICP levels, relative to untreated controls, to log (inhibitor) vs. response equation using Graphpad Prism software 5.0 and expressed as pIC50.
For some compounds, deposition of mature collagen was measured by immunostaining in addition to PICP levels. At the end of the treatment period, cells on culture plate were fixed with 100% methanol (prechilled to −20° C.) for 10 min. Then the cells were immunostained with mouse anti-mature collagen I antibody (1:500 dilution, Sigma#C2456), anti-mouse secondary antibody Alexa647 (1:500 dilution, Invitrogen#A21236) and Hoechst (for nuclei, 2 μg/ml, Invitrogen#H3596). Fluorescent image acquisition was done using the Operetta High Content Imaging system (Perkin Elmer). For each image field, the intensity of mature collagen staining was normalized with the number of nuclei. Normalized collagen levels were used to calculate the potency of test compounds with Graphpad Prism software, as described above.

For the compound `CCCCC[C@@H](C(=O)NCNC(=O)c1ccc(-c2ccc(C(=O)N[C@@H](CC(=O)O)C(=O)O)c(OCC)c2)o1)[C@@H](CC)N(O)C=O` [Example 74, (S)-2-(2-ethoxy-4-(5-((((R)-2-((R)-1-(N-hydroxyformamido)propyl)heptanamido)methyl)carbamoyl)furan-2-yl)benzamido)succinic acid], the values for the IC50 in assay [1] and in assay [2] were < 3.98 µM and < 1 µM, respectively.
Taken in the same sequence, the figures for `CCCCC[C@@H](C(=O)NCNC(=O)c1ccc(-c2cc(OCC)cc(C(=O)N[C@@H](CC(=O)O)C(=O)OC(C)(C)C)c2)o1)[C@@H](CC)N(O)C=O` [Example 47, (S)-4-(tert-butoxy)-3-(3-ethoxy-5-(5-((((R)-2-((R)-1-(N-hydroxyformamido)propyl)heptanamido)methyl)carbamoyl)furan-2-yl)benzamido)-4-oxobutanoic acid] were < 3.98 µM and < 1 µM.
Taken in the same sequence, the figures for `CCCCC[C@@H](C(=O)NCNC(=O)c1ccc(-c2cc(OCC)cc(P(=O)(O)O)c2)o1)[C@@H](CC)N(O)C=O` [Example 96, (3-ethoxy-5-(5-((((R)-2-((R)-1-(N-hydroxyformamido)propyl)heptanamido)methyl)carbamoyl)furan-2-yl)phenyl)phosphonic acid] were < 3.98 µM and < 1 µM.
In the case of `CCCCC[C@@H](C(=O)NCNC(=O)c1ccc(-c2ccc(C(=O)N(CC(=O)O)CC(=O)O)c(OCC)c2)o1)[C@@H](CC)N(O)C=O` [Example 86, 2,2′-((2-ethoxy-4-(5-((((R)-2-((R)-1-(N-hydroxy-formamido)propyl)heptanamido)methyl)carbamoyl)furan-2-yl)benzoyl)azanediyl) diacetic acid], the IC50 is < 3.98 µM in assay [1] and < 1 µM in assay [2].
Take `CCCCC[C@@H](C(=O)NCNC(=O)c1ccc(-c2cc(OCC)cc(C(=O)O)c2O)o1)[C@@H](CC)N(O)C=O` [Example 81, 5-ethoxy-2-hydroxy-3-(5-((((R)-2-((R)-1-(N-hydroxy-formamido)propyl)heptanamido)methyl)carbamoyl)furan-2-yl)benzoic acid]: the IC50 is < 3.98 µM in assay [1] and < 1 µM in assay [2].
Regarding `CCOc1cc(-c2ccc(C(=O)NCNC(=O)[C@H](CCc3ccccc3)[C@@H](CC)N(O)C=O)o2)ccc1C(=O)N(CC(=O)O)CC(=O)O` [Example 124, 2,2′-((2-ethoxy-4-(5-((((2R,3R)-3-(N-hydroxyformamido)-2-phenethylpentanamido)methyl)carbamoyl)furan-2-yl)benzoyl)azanediyl) diacetic acid], the IC50 is < 3.98 µM in assay [1] and < 1 µM in assay [2].
The like results for `CCOc1cc(C(=O)N(CC(=O)O)CC(=O)O)cc(-c2ccc(C(=O)NCNC(=O)[C@H](CCc3ccc(F)cc3F)[C@@H](CC)N(O)C=O)o2)c1` [Example 122, 2,2′-((3-(5-((((2R,3R)-2-(2,4-difluorophenethyl)-3-(N-hydroxyformamido)pentanamido)methyl)carbamoyl)furan-2-yl)-5-ethoxybenzoyl)azanediyl)diacetic acid] were, in that order, < 3.98 µM and < 1 µM.
Regarding `CCCCC[C@@H](C(=O)NCNC(=O)c1ccc(-c2ccccc2)o1)[C@@H](CC)N(O)C=O` [Example 24, N-(((R)-2-((R)-1-(N-hydroxyformamido)propyl)heptanamido)methyl)-5-phenylfuran-2-carboxamide], the IC50 in assay [1] is < 3.98 µM; in assay [2], < 1 µM.
With `CCCCC[C@@H](C(=O)NCNC(=O)c1ccc(-c2cc(OCC)c(F)c(C(=O)O)c2)o1)[C@@H](CC)N(O)C=O` [Example 111, 3-ethoxy-2-fluoro-5-(5-((((R)-2-((R)-1-(N-hydroxy-formamido)propyl)heptanamido)methyl)carbamoyl)furan-2-yl)benzoic acid], the values for the IC50 in assay [1] and in assay [2] were < 3.98 µM and < 1 µM, respectively.
`CCCCC[C@@H](C(=O)NCNC(=O)c1ccc(-c2ccc(C(=O)N[C@@H](CC(=O)O)C(=O)O)c(OCC(=O)O)c2)o1)[C@@H](CC)N(O)C=O` [Example 126, (S)-2-(2-(carboxymethoxy)-4-(5-((((R)-2-((R)-1-(N-hydroxyformamido)propyl)heptanamido)methyl)carbamoyl)furan-2-yl)benzamido) succinic acid]: the IC50 is < 3.98 µM in assay [1] and < 1 µM in assay [2].
The like results for `CCCCC[C@@H](C(=O)NCNC(=O)c1ccc(-c2cc(OCC(=O)O)cc(C(=O)O)c2)o1)[C@@H](CC)N(O)C=O` [Example 113, 3-(carboxymethoxy)-5-(5-((((R)-2-((R)-1-(N-hydroxformamido)propyl)heptanamido)methyl)carbamoyl)furan-2-yl)benzoic acid] were, in that order, < 3.98 µM and < 1 µM.
Taken in the same sequence, the figures for `CCOc1cc(-c2ccc(C(=O)NCNC(=O)[C@H](CCc3ccc(F)cc3F)[C@@H](CC)N(O)C=O)o2)ccc1C(=O)N[C@@H](CC(=O)O)C(=O)O` [Example 123, (S)-2-(4-(5-((((2R,3R)-2-(2,4-difluorophenethyl)-3-(N-hydroxyformamido)pentanamido)methyl)carbamoyl)furan-2-yl)-2-ethoxybenzamido) succinic acid] were < 3.98 µM and < 1 µM.
Consider `CCCCC[C@@H](C(=O)NCNC(=O)c1ccc(-c2ccc(C(=O)NCP(=O)(O)O)c(OCC)c2)o1)[C@@H](CC)N(O)C=O` [Example 139, ((2-ethoxy-4-(5-((((R)-2-((R)-1-(N-hydroxyformamido)propyl)heptanamido)methyl)carbamoyl)furan-2-yl)benzamido)methyl)phosphonic acid], for which the IC50 in assay [1] is < 3.98 µM; in assay [2], < 1 µM.
Taken in the same sequence, the figures for `CCCCC[C@@H](C(=O)NCNC(=O)c1ccc(-c2ccc(P(=O)(O)O)c(OCC)c2)o1)[C@@H](CC)N(O)C=O` [Example 98, (2-ethoxy-4-(5-((((R)-2-((R)-1-(N-hydroxyformamido)propyl)heptanamido)methyl)carbamoyl)furan-2-yl)phenyl)phosphonic acid] were < 3.98 µM and < 1 µM.
For `CCCCC[C@@H](C(=O)NCNC(=O)c1ccc(-c2cc(OCC(=O)O)cc(C(=O)O)c2O)o1)[C@@H](CC)N(O)C=O` [Example 121, 5-(carboxymethoxy)-2-hydroxy-3-(5-((((R)-2-((R)-1-(N-hydroxyformamido)propyl)heptanamido)methyl)carbamoyl)furan-2-yl)benzoic acid], the IC50 in assay [1] is < 3.98 µM; in assay [2], < 1 µM.
The like results for `CCCCC[C@@H](C(=O)NCNC(=O)c1ccc(-c2cc(O)cc(C(=O)O)c2)o1)[C@@H](CC)N(O)C=O` [Example 112, 3-hydroxy-5-(5-((((R)-2((R)-1-(N-hydroxyformamido)propyl)heptanamido)methyl)carbamoyl)furan-2-yl)benzoic acid] were, in that order, < 3.98 µM and < 1 µM.
Consider `CCCCC[C@@H](C(=O)NCNC(=O)c1ccc(-c2cc(OCC)cc(C(=O)N[C@@H](CC(=O)O)C(=O)O)c2)o1)[C@@H](CC)N(O)C=O` [Example 77, (S)-2-(3-ethoxy-5-(5-((((R)-2-((R)-1-(N-hydroxyformamido)propyl)heptanamido)methyl)carbamoyl)furan-2-yl)benzamido) succinic acid], for which the IC50 in assay [1] was < 3.98 µM; in assay [2], < 1 µM.
The like results for `CCCCC[C@@H](C(=O)NCNC(=O)c1ccc(-c2cc(CP(=O)(O)O)cc(OCC)c2)o1)[C@@H](CC)N(O)C=O` [Example 99, (3-ethoxy-5-(5-((((R)-2-((R)-1-(N-hydroxy-formamido)propyl)heptanamido)methyl)carbamoyl)furan-2-yl)benzyl) phosphonic acid] were, in that order, < 3.98 µM and < 1 µM.
In the case of `CCCCC[C@@H](C(=O)NCNC(=O)c1ccc(-c2cc(OCCC)cc(C(=O)O)c2)o1)[C@@H](CC)N(O)C=O` [Example 82], the IC50 was < 3.98 µM in assay [1] and < 1 µM in assay [2].
